According to patent US7842703B2, “Substituted benzofused derivatives and their use as vanilloid receptor ligands” (Glenmark Pharmaceuticals S.A., priority 2005, dated 2010):

Target: T1, Human TRPV1 expressing CHO cells (Homo sapiens, UniProt Q8NER1)
T1 construct: expressed in transfected cells; host or cells: CHO cells under G-418 selection
Test: Screening for TRPV1 antagonist using the 45Calcium uptake assay (inhibition of capsaicin induced cellular uptake of radioactive calcium)
Assay type: cell-based
Conditions: for inhibition at 1 µM: CHO; for inhibition at 1 µM / % inhibition of ^45Ca uptake at 1 μM: test compound 1 μM, capsaicin 250 nM, relative to maximum ^45Ca uptake induced by capsaicin alone; for IC50: inhibition of capsaicin (250 nM) induced ^45Ca uptake
Protocol: The inhibition of TRPV1 receptor activation was followed as inhibition of capsaicin induced cellular uptake of radioactive calcium which represents calcium influx exclusively through the plasma membrane associated TRPV1 receptor.
Stock solution of capsaicin was made in ethanol and test compounds in 100% DMSO. Stock solutions were diluted to appropriate final concentrations in assay buffer keeping the final DMSO concentration between 0.1% and 0.55%.
^45Ca was used at a final concentration of 2.5 μCi/ml (^45Ca, ICN).
Assay buffer was composed of F-12 DMEM medium supplemented with 1.8 mM CaCl2 (final conc.) and 0.1% Bovine serum albumin. (BSA from SIGMA)
Wash buffer was tyrodes solution supplemented with 0.1% BSA and 1.8 mM calcium. Lysis buffer contained 50 mM Tris-HCl, pH7.5, 150 mM NaCl, 1% Triton X-100, 0.5% deoxycholate and 0.1% Sodium dodicyl sulphate (SDS, SIGMA)
Assay was carried out with some modifications the of procedure as described by Toth et. al. (See Toth A et. al., Life Sciences 73 p 487-498, 2003). Human TRPV1 expressing CHO cells were grown in F-12 DMEM (Dulbecco's modified Eagle's medium—GIBCO) medium with 10% FBS (fetal bovine serum Hyclone), 1% penicillin-streptomycin solution, 400 μg/ml of G-418. Cells were seeded 48 h prior to the assay in 96 well plates so as to get ˜50,000 cells per well on the day of experiment. Plates were incubated at 37° C. in the presence of 5% CO2. Cells were then washed twice with 200 μl of assay buffer and re-suspended in 144 μl of the same. Assay was carried out at 30° C. in total volume of 200 μl. Test compounds were added to the cells fifteen minutes before addition of capsaicin, Final concentration of capsaicin in the assay was 250 nM. After 5 minutes of agonist treatment, drug was washed out and wells rinsed with 300 μl of ice cold wash buffer 3×. The cells were lysed in 50 μl lysis buffer for 20 min. 40 μl of cell lysate was mixed with 150 μl of Microscint PS, left overnight for equilibration. Radioactivity in samples was measured as counts per minute (cpm) using Packard Biosciences Top Count. The drug/vehicle/capsaicin treated ^45Ca uptake values were normalized over basal ^45Ca value. Data was expressed as % inhibition of ^45Ca uptake by test compound with respect to maximum ^45Ca uptake induced by capsaicin alone. IC50 value was calculated from dose response curve by nonlinear regression analysis using GraphPadPRISM software.

T1 sequence (Q8NER1 whole entry): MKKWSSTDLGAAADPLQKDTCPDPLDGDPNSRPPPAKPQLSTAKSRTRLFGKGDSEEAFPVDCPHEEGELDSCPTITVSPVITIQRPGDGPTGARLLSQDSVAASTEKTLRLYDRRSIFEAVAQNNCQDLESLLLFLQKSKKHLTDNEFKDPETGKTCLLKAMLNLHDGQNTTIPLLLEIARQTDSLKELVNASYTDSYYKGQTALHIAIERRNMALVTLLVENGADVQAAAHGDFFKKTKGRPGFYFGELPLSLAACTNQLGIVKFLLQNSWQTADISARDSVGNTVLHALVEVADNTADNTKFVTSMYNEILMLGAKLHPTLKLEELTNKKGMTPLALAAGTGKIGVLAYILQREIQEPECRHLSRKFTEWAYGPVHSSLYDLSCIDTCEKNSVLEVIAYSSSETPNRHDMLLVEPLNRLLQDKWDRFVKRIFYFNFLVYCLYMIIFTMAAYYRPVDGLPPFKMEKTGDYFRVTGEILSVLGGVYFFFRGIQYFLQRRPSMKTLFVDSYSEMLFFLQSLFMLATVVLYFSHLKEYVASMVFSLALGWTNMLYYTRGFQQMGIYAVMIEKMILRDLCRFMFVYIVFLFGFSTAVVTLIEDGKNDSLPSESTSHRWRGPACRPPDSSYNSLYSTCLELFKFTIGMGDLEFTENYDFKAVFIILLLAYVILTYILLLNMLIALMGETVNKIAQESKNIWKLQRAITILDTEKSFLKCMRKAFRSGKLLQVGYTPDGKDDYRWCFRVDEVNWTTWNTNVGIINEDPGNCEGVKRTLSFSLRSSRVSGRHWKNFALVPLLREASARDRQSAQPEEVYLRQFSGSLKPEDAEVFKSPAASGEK

Row | Compound | inhibition at 1 µM [%] | IC50 [nM] | % inhibition of ^45Ca uptake at 1 μM [%]
1 | Cc1ccc2c(c1)C(NC(=O)Nc1cccc3cnccc13)CC1(CCC1)O2 (racemic) [Example 40, (±)-1-(3,4-Dihydro-6-methyl-spiro[2H-1-benzopyran-2,1′-cyclobutane]-4-yl)-3-(isoquinolin-5-yl)urea] | > 50 | 123 | 
2 | Cc1nccc2c(NC(=O)NC3CC4(CCC4)Oc4ccc(F)cc43)cccc12 (racemic) [Example 75, (±) 1-(3,4-Dihydro-6-fluoro-spiro[2H-1-benzopyran-2,1′-cyclobutane]-4-yl)-3-(1-methylisoquinolin-5-yl)urea] | > 50 | 23 | 
3 | O=C(Nc1cccc2cnccc12)NC1CC2(CCC2)Oc2c(F)cc(F)cc21 (single isomer, unassigned; (+)) [Example 59] | > 50 | 7.59 | 
4 | (±) 1-(3,4-Dihydro-6-fluoro-spiro[2H-1-benzopyran-2,1′-cyclobutane]-4-yl)-3-(isoquinolin-5-yl)urea [Example 50] |  | 7.8 | >50
5 | O=C(Nc1cccc2ncccc12)NC1CC2(CCC2)Oc2ccccc21 (racemic) [Example 26, (±) 1-(3,4-Dihydrospiro[2H-1-benzopyran-2,1′-cyclobutan]-4-yl)-3-(quinolin-5-yl)urea] | 19.8 |  | 
6 | O=C(Nc1nnc(-c2ccc(Br)cc2)s1)NC1CC2(CCC2)Oc2ccccc21 (racemic) [Example 21, (±) 1-(3,4-Dihydro-spiro[2H-1-benzopyran-2,1′-cyclobutane]-4-yl)-3-([5-(4-bromophenyl)-1,3,4-thiadiazol-2-yl]-)urea] |  |  | <50
7 | O=C(Nc1cccc2cnccc12)NC1CC2(CCOCC2)Oc2ccccc21 (racemic) [Example 2, (±) 1-(2′,3,3′,4,5′,6′-Hexahydrospiro-[2H]-1-benzopyran-2,4′-pyran-4-yl)-3-(isoquinoline-5-yl)urea] |  | 171 | 96.12
8 | O=C(Nc1cccc2c(=O)[nH]ccc12)NC1CC2(CCC2)Oc2ccccc21 (stereo not shown) [Example 30, N′-(1-oxo-1,2-dihydroisoquinolin-5-yl)-N-3,3′,4,4′-tetrahydro-2′H-spiro[chromene-2,1′-cyclobutan]-4-ylurea (N′-(1-oxo-1,2-dihydroisoquinolin-5-yl)-N-3,4-dihydro-2H-spiro[chromene-2,1′-cyclobutan]-4-ylurea)] |  |  | <50
9 | Cn1cc2cc(NC(=O)NC3CC4(CCC4)Oc4ccccc43)ccc2n1 (racemic) [Example 15, (±) 1-(3,4-Dihydro-spiro[2H-1-benzopyran-2,1′-cyclobutane]-4-yl)-3-(2-methyl-2H-indazol-5-yl)urea] | < 50 |  | 
10 | O=C(Nc1nnc(-c2ccc([N+](=O)[O-])cc2)s1)NC1CC2(CCC2)Oc2ccccc21 (racemic) [Example 24, (±) 1-(3,4-Dihydro-spiro[2H-1-benzopyran-2,1′-cyclobutane]-4-yl)-3-(5-(4-nitrophenyl)-1,3,4-thiadiazol-2-yl)urea] | < 50 |  | 
11 | O=C(Nc1cccc2cnccc12)NC1CC2(CCC2)Oc2ccc(F)cc21 (single isomer, unassigned; (-)) [Example 44, (−) 1-(3,4-Dihydro-6-fluorospiro[2H-1-benzopyran-2,1′-cyclobutane]-4-yl)-3-(isoquinolin-5-yl)urea] | < 50 |  | 
12 | Cc1nccc2c(NC(=O)NC3CC4(CCC4)Oc4ccc(Cl)cc43)cccc12 (racemic) [Example 74, (±) 1-(6-Chloro-3,4-dihydro-spiro[2H-1-benzopyran-2,1′-cyclobutane]-4-yl-3-(1-methylisoquinolin-5-yl)urea] | > 50 | 917 | 
13 | Nc1ccc2c(c1)C(NC(=O)Nc1cccc3cnccc13)CC1(CCC1)O2 (racemic) [Example 79, (±) 1-(6-Amino-3,4-dihydro-spiro[2H-1-benzopyran-2,1′-cyclobutane]-4-yl)-3-(isoquinolin-5-yl)urea] | < 50 |  | 
14 | O=C(Nc1cccc2cnccc12)NC1CC2(CCC2)Oc2ccc(F)cc21 (single isomer, unassigned; (+)) [Example 43, (+) 1-(3,4-Dihydro-6-fluoro-spiro[2H-1-benzopyran-2,1′-cyclobutane]-4-yl)-3-(isoquinolin-5-yl)urea] | > 50 | 5.2 | 
15 | Cc1cc2c(NC(=O)NC3CC4(CCC4)Oc4ccccc43)cccc2cn1 (racemic) [Example 7, (±) 1-(3,4-Dihydro-spiro[2H-1-benzopyran-2,1′-cyclobutane]-4-yl)-3-(3-methylisoquinolin-5-yl)urea] | > 50 | 183 | 
16 | Cc1cc(C)nc(NC(=O)NC2CC3(CCC3)Oc3ccccc32)n1 (racemic) [Example 22, (±) 1-(3,4-Dihydro-spiro[2H-1-benzopyran-2,1′-cyclobutane]-4-yl)-3-(4,6-dimethylpyrimidin-2-yl)urea] | < 50 |  | 
17 | O=C(Nc1cccc2cnccc12)NC1CC2(CCC2)Oc2c(Cl)cccc21 (racemic) [Example 49, (±) 1-(8-Chloro-3,4-dihydro-spiro[2H-1-benzopyran-2,1′-cyclobutane]-4-yl)-3-(isoquinolin-5-yl)urea] | > 50 | 29.9 | 
18 | O=C(NCc1cccnc1)NC1CC2(CCC2)Oc2ccccc21 (racemic) [Example 31, (±) 1-(3,4-Dihydro-spiro[2H-1-benzopyran-2,1′-cyclobutan]-4-yl)-3-(pyridin-3-ylmethyl)urea] | < 50 |  | 
19 | (±) 1-(3,4-Dihydro-spiro[2H-1-benzopyran-2,1′-cyclobutane]-4-yl)-3-(6-fluoro-1,3-benzothiazol-2-yl)urea [Example 12] |  |  | <50
20 | O=C(Nc1cccc2cnccc12)NC1CC2(CCC2)Oc2c(F)cc(F)cc21 (single isomer, unassigned; (-)) [Example 60, (−) 1-(6,8-Difluoro-3,4-Dihydro-spiro[2H-1-benzopyran-2,1′-cyclobutane]-4-yl)-3-(isoquinolin-5-yl)urea] |  |  | <50
21 | O=C(Nc1cccc2cnccc12)NC1CC2(CCC2)S(=O)(=O)c2ccccc21 (racemic) [Example 82, (±) 1-(1,1-dioxo-3,4-dihydro-spiro[2H-1-benzothiopyran-2,1′cyclobutane]-4-yl)-3-(isoquinolin-5-yl)urea] |  | 224 | >50
22 | O=C(NCc1ccccn1)NC1CC2(CCC2)Oc2ccccc21 (racemic) [Example 32, (±) 1-(3,4-Dihydro-spiro[2H-1-benzopyran-2,1′-cyclobutane]-4-yl)-3-(pyridin-2-ylmethyl)urea] | < 50 |  | 
23 | O=C(NCc1ccncc1)N[C@H]1CC2(CCC2)Oc2ccccc21 [Example 37] | 0 |  | 
24 | Cc1ccc2nc(NC(=O)NC3CC4(CCC4)Oc4ccccc43)sc2c1 (racemic) [Example 18, (±) 1-(3,4-Dihydro-spiro[2H-1-benzopyran-2,1′-cyclobutane]-4-yl)-3-(6-methyl-1,3-benzothiazol-2-yl)urea] | < 50 |  | 
25 | O=C(Nc1nc2ccc(Cl)cc2s1)NC1CC2(CCC2)Oc2ccccc21 (racemic) [Example 11, (±) 1-(3,4-Dihydro-spiro[2H-1-benzopyran-2,1′-cyclobutane]-4-yl)-3-(6-chloro-1,3-benzothiazol-2-yl)urea] | < 50 |  | 
26 | O=C(Nc1cccc2cnccc12)NC1CC2(CCC2)Oc2ccccc21 (single isomer, unassigned; (-)) [Example 5, (−) 1-(3,4-Dihydro-spiro-[2H-1-benzopyran-2,1′-cyclobutan]-4-yl)-3-(isoquinolin-5-yl)urea] |  | 304 | >50
27 | COc1ccc2nc(NC(=O)NC3CC4(CCC4)Oc4ccccc43)sc2c1 (racemic) [Example 14, (±) 1-(3,4-Dihydro-spiro[2H-1-benzopyran-2,1′-cyclobutane]-4-yl)-3-(6-methoxy-1,3-benzothiazol-2-yl)urea] | < 50 |  | 
28 | Cc1cc2c(cc1Br)C(NC(=O)Nc1cccc3cnccc13)CC1(CCC1)O2 (racemic) [Example 67, (±) 1-(6-Bromo-3,4-dihydro-7-methylspiro[2H-1-benzopyran-2,1′-cyclobutane]-4-yl)-3-(isoquinolin-5-yl)urea] | > 50 | 447 | 
